Experimental data published in patent US20220145303A1, “FRAGILE X MENTAL RETARDATION PROTEIN INTERFERING OLIGONUCLEOTIDES AND METHODS OF USING SAME” (Nogra Pharma Limited, priority 2019, published 2022).

Experiments:
HCT-116 cells = experiment: Cell death by AnnexinV/PI flow cytometry in HCT-116 cells; format: cell-based, human; settings: 48 hours, AS 0.5 nM and 100 nM, FIG. 3H
Protocol: Cells were transfected with either FMRP antisense oligonucleotide (AS)(final concentration 0.5 nM and 100 nM) or FMRP sense oligonucleotide (S)(final concentration 100 nM). After 24 hours (FIGS. 3E, 3F, 3J and 3K) or 48 hours (FIG. 3H), cells were collected, washed two times in Annexin V (AV) buffer, stained with FITC-AnnexinV (final dilution 1:100; Immunotools, Friesoythe, Germany) according to the manufacturer's instructions, and incubated with […] of propidium iodide (PI) for 30 min at 4° C. Cells were also transfected with either FMRP sense oligonucleotide or FMRP AS oligonucleotide (final concentration 100 nM) for 36 hours and analyzed for activated caspase 3 and caspase 8. As positive and negative controls, cells were treated, respectively, with staurosporin (final concentration 1 μM, Sigma-Aldrich Milan, Italy) or Q-VD-OPh (a pan-caspase inhibitor; final concentration 1 μM) (R&D Systems, Inc, Minneapolis, Minn.). Additionally, 36 hours (FIGS. 4F and 4G) or 48 hours post-transfection (FIGS. 4D and 4E), cells were pulsed with […] bromodeoxyuridine for 60 minutes, fixed in 70% cold ethanol, and stored at −20° C. for at least 3 hours. […] Fluorescence was measured using Gallios Flow Cytometer (Beckman Coulter, Life Sciences, Pasadena, Calif., USA) and analyzed using Kaluza software (Beckman Coulter). […]

β-catenin = experiment: Western blot of β-catenin in HCT-116 cells; format: cell-based, human; settings: HCT-116, AS 0.5 nM, 48 hours, vs untreated or sense, FIGS. 8E, 8G
Protocol: To determine whether FMRP regulates levels of E-cadherin and/or β-catenin, key proteins associated with cellular adhesion, cytoskeletal remodeling, and inhibition of tumor migration and invasion, cells were left untreated (U), or transfected with either FMRP sense (S) oligonucleotide (final concentration 0.5 nM) or FMRP antisense (AS) oligonucleotide (final concentration 0.5 nM) for 48 hours.
Recent studies have described a novel tumor suppressor function of MCC in the regulation of E-cadherin/β-catenin complex-mediated cell-cell adhesion in colorectal cells. To investigate whether MCC mediates the observed increase of E-cadherin and β-catenin expression in HCT-116 cells transfected with antisense FMRP oligonucleotide (e.g., FIGS. 8E-8G), cells were left untreated (U) or transfected with sense FMRP oligonucleotide (final concentration 0.5 nM), or antisense FMRP oligonucleotide (final concentration 0.5 nM), and/or control siRNA (siRNA Ctrl) or siRNA specific for MCC (siRNA MCC) for 48 hours.

Question: What does the source list for “5′-TCCACCACCAGCTCCTCCAT-3′ (all phosphorothioate, sugars by position and methylation of C not given here) [FMRP antisense oligonucleotide, Phosphorothioate single-stranded antisense oligonucleotides complementary to human FMRP]”?
Answer: number of AnnexinV+ or AnnexinV+ PI+ cells (HCT-116 cells): neither HCT-116 cells nor HCRC-1ct cells treated with FMRP antisense oligonucleotide exhibited an increased number; β-catenin protein expression (β-catenin): significantly increased
